# Source: patent US20110124607A1, “COMPOSITION FOR REGULATION CELLULAR SENESCENCE COMPRISING LYSOPHOSPHATIDIC ACID AND INHIBITOR OF ADENYLYL CYCLASE AS ACTIVE INGREDIENTS” (priority 2008, published 2011)
# Assays:
# [1] = test system: young cells (human fibroblasts); assay: Cell proliferation by counting live cells (trypan blue), young cells; assay type: cell-based; conditions: serum-starved 2 days, counted day 1, 2, 4, 30 μM LPA, 300 μM ACI, 10 mM AMPKI, 10 mM AICAR
# Description: (§1) Human fibroblasts were prepared by primary culture of foreskin of a newborn baby (Boyce and Ham, 1983). The primary culture was performed in DMEM supplemented with 10% FBS and 1% antibiotics. The protein contents of young cells from the early stage of sub-culture, with a population doubling (PD) of less than 25, were compared to those of at least PD 65-70 senescent cells. […] In senescent cells, the activity of beta-galactosidase was increased and cell proliferation was reduced (Yeo et al., 2000).
# (§2) Prior to LPA and ACI treatment, cells were grown for 1-2 days to 60-70% sub-confluence in DMEM-containing culture medium, and then serum-starved to quiescence (that is Go/G1 arrest) by incubation in a serum-free medium containing 0.1% bovine serum albumin (BSA) for 2 days. Young and senescent cells were treated with LPA, ACI, LPA+ACI, AMPKI and AICAR, respectively. Live cells were measured after staining the cells with trypan blue on day 1, day 2 and day 4 to confirm cell proliferation.
# (§3) Cell proliferation and cAMP level were increased by LPA in senescent cells (Yeo et al., 2002). The AC inhibitor (ACI) was added to reduce cAMP which had been increased by LPA. And then, cell proliferation was investigated. Cells were cultured in serum-free medium for 2 days to arrest them in G0/G1 phase. Then, the cells were treated with LPA, ACI or LPA+ACI. Total cell number was measured on day 1, day 2 and day 4, or the cells entered into S phase were counted to evaluate cell proliferation. When young cells were treated with 300 μM of ACI, cell proliferation was reduced, compared with control (FIG. 1A). In the meantime, when senescent cells were treated with 300 μM of ACI, cell proliferation was increased, compared with control (FIG. 1B).
# [2] = test system: senescent cells (human fibroblasts); assay: Cell proliferation by counting live cells (trypan blue), senescent cells; assay type: cell-based; conditions: serum-starved 2 days, counted day 1, 2, 4, 30 μM LPA, 300 μM ACI, 10 mM AMPKI, 10 mM AICAR
# Description: as §1, §2, §3
# p-Thr172-AMPKα = assay: Immuno-blotting of p-Thr172-AMPKα; assay type: cell-based, human; conditions: 30 μM LPA, 300 μM ACI, 10 mM AMPKI, 10 mM AICAR, up to day 4
# Description: (§4) (A) and (B): Young and senescent cells were serum-starved for 2 days, followed by treatment with 10 mM of AMPK inhibitor […]) or 10 mM of AMPK activator AICAR(B) for 4 days. Proteins were extracted from the treated cells and the levels of AMPKα and p-Thr172-AMPKα, total p53, p-Ser15-p53 and […] measured by immuno-blotting. (C) and (D): Young cells (C) and senescent cells (D) were treated with 10 mM AMPKI or 10 mM AICAR and cultured for 4 days, followed by measurement of cell proliferation by cell counting. At this time, the experiment was repeated three times (p<0.001). (A) and (B) are photographs illustrating the results of immuno-blotting. Precisely, sub-cultured young cells (PD 18: A) and senescent cells (PD 64: B) were treated with 30 μM of LPA […] and ACI singly or together, followed by further culture for 1, 2, and 4 days. Proteins were extracted from the cultured cells and the levels of AMPKα, […] β-actin were quantified by immuno-blotting. (A) and (B) are photographs illustrating the results of immuno-blotting. Precisely, senescent cells (PD 64) were pre-treated with 10 mM of PKA inhibitor Rp-cAMP for one hour, followed by treatment with LPA(A) or ACI(B). After culturing the cells for 1, 2, and 4 days, proteins were extracted from the cultured cells and the levels of AMPKα, […] β-actin were quantified by immuno-blotting using 45 μg of the protein. To analyse protein expression, human fibroblasts were lysed in cold lysis buffer (25 mM Hepes, pH 8.0, 150 mM NaCl, 1 mM EDTA, 1 mM Na3VO4, 1 mM NaF, 1% Triton X-100 and protease inhibitors), followed by centrifugation at 4° C. at 9,000 rpm for 10 minutes to obtain supernatant. Protein in the extract was quantified […]. SDS-PAGE electrophoresis was performed with equal amount of the protein (45 μg) to separate. The separated protein was transferred onto NC membrane from the electrophoresis gel. Non-specific protein binding was blocked by blocking the blot (transferred NC membrane) using TTBS […] containing 5% skim milk for one hour. Then, antigen-antibody reaction was induced with diluted primary antibody at 4° C. for overnight. The blot was washed with TTBS, followed by reaction with horseradish peroxidase conjugated anti-IgGs diluted in TTBS containing 5% skim milk (1:5000) at room temperature for one hour. The blot was washed again with TTBS to eliminate non-specific binding of antigen-antibody. Photographs were developed/printed on X-ray film (Kodak) using ECL kit (Pierce) containing peroxidase substrate to identify each protein.
# p-Ser15-p53 = assay: Immuno-blotting of p-Ser15-p53; assay type: cell-based, human; conditions: 10 mM AMPKI, 10 mM AICAR
# Description: as §4
# p21waf1/cip1 = assay: Immuno-blotting of p21waf1/cip1; assay type: cell-based, human; conditions: 10 mM AMPKI, 10 mM AICAR
# Description: as §4
# [3] = senescent cells, 30 μM LPA, 300 μM ACI
structure (smiles),measurement,setting,value
NC(=O)c1ncn([C@@H]2O[C@H](CO)[C@@H](O)[C@H]2O)c1N [AICAR],cell proliferation (cell number) compared with control,[1],suppressed
same,cell proliferation (cell number) compared with control,[2],suppressed
same,Thr172-AMPKα phosphorylation,p-Thr172-AMPKα; senescent cells,increased
same,Thr172-AMPKα phosphorylation,p-Thr172-AMPKα; young cells,increased
same,p-Ser15-p53 expression,p-Ser15-p53; [3],increased
same,p-Ser15-p53 expression,"p-Ser15-p53; young cells, 4 days",increased
same,p21 expression (immuno-blotting),p21waf1/cip1; [3],increased
same,p21 expression (immuno-blotting),"p21waf1/cip1; young cells, 4 days",increased
